Tests used:
H3122 (EML4-ALK) = assay: Cell growth inhibition assay (WST-8), H3122; type: cell-based; details: Homo sapiens, NCI-H3122, read-out: H3122 (nM) (EML4-ALK), 50% of cell growth inhibition (IC50); H3122 cells, WST-8, versus DMSO control
Procedure: (§1) All cell lines were cultured as recommended. For cell growth inhibition assay, cells were treated with different concentrations of the tested compounds, diluted from stock to culture media containing a 0.2% DMSO as the final concentration. Cell viability was determined using the WST-8 cell proliferation assay kit (Dojindo Molecular Technologies) according to manufacture's instructions. Three independent experiments in triplicates were performed.

Kappas-299 (NPM-ALK) = assay: Cell growth inhibition assay (WST-8), Kappas-299; type: cell-based; details: read-out: Kappas-299 (nM) (NPM-ALK), 50% of cell growth inhibition (IC50), Kappas-299 cells, WST-8, versus DMSO control
Procedure: as §1

wild-type human ALK = biological target: T1, wild-type human ALK (Homo sapiens, UniProt Q9UM73); assay: ALK kinase activity, Lance TR-FRET assay (wild-type); type: biochemical; details: Table 2, ALK enzyme; read-out: Inhibitory activity (nM) ALK
T1 construct: The cytoplasmic domain (amino acid 1058-1620) of wild-type human ALK protein; GST (N); purchased Carna Biosciences, Inc (Japan)
Procedure: Mutated ALK proteins were expressed in SF9 insect cells with N-terminal tags cleaved after purification. Kinase activities of all enzymes were assessed using a Lance TR-FRET assay kit from Perkin Elmer Life Sciences (Waltham, Mass.). 2.5 μL of compound solution and 5 μL of protein solution were added into a black low volume 384 well microtiter plate which was incubated for 30 minutes with gentle shaking at room temperature, followed by adding 2.5 μL of fluorescently labeled peptide substrate and ATP mixture solution. The kinase reaction was performed in 50 mM HEPES (pH 7.5) with 1 mM EGTA, 1 mM MgCl2, and 2 mM DTT, 0.01% Tween-20 added right before the assay. […] The final mixture was incubated in the dark for 1 hour before the plate was read on a Tecan Infinite M-1000 multi-mode plate reader (Tecan, Durham N.C.) with an excitation wavelength of 320 nm.

KARPAS 299 xenograft = KARPAS 299 xenograft model in mice, in vivo antitumor efficacy; details: SCID mice, given orally, once daily for 3 weeks, FIG. 1
Procedure: Tumor cells for xenografts were washed twice in PBS, and re-suspended in an ice cold mixture of 1:1 PBS and Matrigel (BD Biosciences, Invitrogen Corp.) for a final Matrigel protein concentration of 5 mg/ml. Cells at 5×10^6 cells in 0.1 ml were injected subcutaneously (s.c.) into the flank region of each mouse.
The size of tumors growing in the mice was measured in two dimensions using calipers. Tumor volume (mm^3)=(A×B^2)/2 where A and B are the tumor length and width (in mm), respectively. During treatment, tumor volume and body weight were measured three times a week. After the treatment was stopped, tumor volume and body weight was measured at least once a week.
Tumors were not allowed to exceed 10% of the animal's total body weight. If an animal had two or more tumors the total weight of all tumors were not allowed to exceed 10% of the animal's total body weight. At the end of the experimental period or when tumor size approached 10% of the total body weight, the animal was euthanized.
Mice with tumors within acceptable size range were randomized into treatment groups of 7 mice. Drug was given orally, once daily for 3 weeks. The Control group received vehicle alone.

T1 sequence (Q9UM73 1058-1620): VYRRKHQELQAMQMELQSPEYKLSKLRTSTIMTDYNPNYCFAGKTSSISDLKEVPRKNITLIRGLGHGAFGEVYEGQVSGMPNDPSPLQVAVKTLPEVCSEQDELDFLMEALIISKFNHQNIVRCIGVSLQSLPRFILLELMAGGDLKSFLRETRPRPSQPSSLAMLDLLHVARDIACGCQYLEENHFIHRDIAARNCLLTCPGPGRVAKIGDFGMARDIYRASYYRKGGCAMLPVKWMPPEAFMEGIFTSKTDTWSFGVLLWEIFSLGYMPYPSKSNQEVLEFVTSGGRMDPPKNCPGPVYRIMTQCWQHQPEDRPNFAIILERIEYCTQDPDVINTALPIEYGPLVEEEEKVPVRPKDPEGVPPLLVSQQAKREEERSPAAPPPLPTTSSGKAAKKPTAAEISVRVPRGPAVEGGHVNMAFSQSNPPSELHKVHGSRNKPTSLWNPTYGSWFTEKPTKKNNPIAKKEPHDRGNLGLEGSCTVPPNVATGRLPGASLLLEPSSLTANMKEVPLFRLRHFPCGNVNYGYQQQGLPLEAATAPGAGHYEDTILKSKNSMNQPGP

| IC50 (H3122 (EML4-ALK)) [nM] | IC50 (wild-type human ALK) [nM] | Structure (SMILES) | IC50 (Kappas-299 (NPM-ALK)) [nM] | tumor growth in the KARPAS 299 xenograft model (KARPAS 299 xenograft) |
| --- | --- | --- | --- | --- |
| 27 | – | CCN1[C@H](C)CN(c2c(OC)cc3c(=O)c4c5ccc(C#N)cc5[nH]c4n(C(C)C)c3c2F)C[C@@H]1C [Cpd. No. 9, 3-((3R,5S)-4-ethyl-3,5-dimethylpiperazin-1-yl)-4-fluoro-5-isopropyl-2-methoxy-11-oxo-6,11-dihydro-5H-indolo[2,3-b]quinoline-8-carbonitrile] | 85 | – |
| – | 0.24 | COc1cc2c(=O)c3c4ccc(C#N)cc4[nH]c3n(C(C)C)c2c(F)c1C1=CC(C)(C)N(C)C(C)(C)C1 [Cpd. No. 12, 4-fluoro-5-isopropyl-2-methoxy-11-oxo-3-(1,2,2,6,6-pentamethyl-1,2,3,6-tetrahydropyridin-4-yl)-6,11-dihydro-5H-indolo[2,3-b]quinoline-8-carbonitrile] | 9.7 | inhibit tumor growth |
| 18 | 0.5 | COc1cc2c(=O)c3c4ccc(C#N)cc4[nH]c3n(C(C)C)c2c(F)c1C1=C[C@@H](C)N[C@@H](C)C1 [Cpd. No. 18, 3-((2S,6R)-2,6-dimethyl-1,2,3,6-tetrahydropyridin-4-yl)-4-fluoro-5-isopropyl-2-methoxy-11-oxo-6,11-dihydro-5H-indolo[2,3-b]quinoline-8-carbonitrile] | 16 | – |
| 20 | 0.36 | COc1cc2c(=O)c3c4ccc(C#N)cc4[nH]c3n(C(C)C)c2c(F)c1C1=C[C@@H](C)N(C)[C@@H](C)C1 [Cpd. No. 19, 4-fluoro-5-isopropyl-2-methoxy-11-oxo-3-((2S,6R)-1,2,6-trimethyl-1,2,3,6-tetrahydropyridin-4-yl)-6,11-dihydro-5H-indolo[2,3-b]quinoline-8-carbonitrile] | 16 | inhibit tumor growth |
| 30 | 1.4 | COc1cc2c(=O)c3c4ccc(C#N)cc4[nH]c3n(C(C)C)c2c(F)c1C1=CCN(C2CCOCC2)CC1 [Cpd. No. 20, 4-fluoro-5-isopropyl-2-methoxy-11-oxo-3-(1-(tetrahydro-2H-pyran-4-yl)-1,2,3,6-tetrahydropyridin-4-yl)-6,11-dihydro-5H-indolo[2,3-b]quinoline-8-carbonitrile] | 38 | inhibit tumor growth |

| Structure (SMILES) | IC50 (H3122 (EML4-ALK)) [nM] | IC50 (wild-type human ALK) [nM] | IC50 (Kappas-299 (NPM-ALK)) [nM] | tumor growth in the KARPAS 299 xenograft model (KARPAS 299 xenograft) |
| --- | --- | --- | --- | --- |
| COc1cc2c(=O)c3c4ccc(C#N)cc4[nH]c3n(C(C)C)c2c(F)c1C1CC2CCC(C1)N2C (stereo not shown) [Cpd. No. 10, 4-fluoro-5-isopropyl-2-methoxy-3-(8-methyl-8-azabicyclo[3.2.1]octan-3-yl)-11-oxo-6,11-dihydro-5H-indolo[2,3-b]quinoline-8-carbonitrile] | – | 0.37 | 69 | – |
| COc1cc2c(=O)c3c4ccc(C#N)cc4[nH]c3n(C(C)C)c2c(F)c1C1=CCNCC1 [Cpd. No. 16, 4-fluoro-5-isopropyl-2-methoxy-11-oxo-3-(1,2,3,6-tetrahydropyridin-4-yl)-6,11-dihydro-5H-indolo[2,3-b]quinoline-8-carbonitrile] | – | 0.85 | 167 | – |
| COc1cc2c(=O)c3c4ccc(C#N)cc4[nH]c3n(C(C)C)c2c(F)c1C1=CCN(C)CC1 [Cpd. No. 17, 4-fluoro-5-isopropyl-2-methoxy-3-(1-methyl-1,2,3,6-tetrahydropyridin-4-yl)-11-oxo-6,11-dihydro-5H-indolo[2,3-b]quinoline-8-carbonitrile] | – | 0.75 | 60 | – |

From patent US10781208B2, “5,6-dihydro-11H-indolo[2,3-B]quinolin-11-ones as alk inhibitors” (THE REGENTS OF THE UNIVERSITY OF MICHIGAN, priority 2016, dated 2020)
